[1] = 6 mg continuous, regimen 2 (n = 78)
[2] = 8 mg continuous, Regimen 3 (n = 99)
[3] = 8 mg continuous, selected regimen 3 (n = 99)

## COc1cc(OC)cc(N(CCNC(C)C)c2ccc3ncc(-c4cnn(C)c4)nc3c2)c1 [erdafitinib, N-(3,5-dimethoxy-phenyl)-N′-(1-methylethyl)-N-[3-(1-methyl-1H-pyrazol-4-yl)quinoxalin-6-yl]ethane-1,2-diamine]
[1]
  Treatment-related adverse event: Asthenia, Any grade: 11 (14) no. (%)
  Treatment-related adverse event: Asthenia, Grade 1: 3 (4) no. (%)
  Treatment-related adverse event: Asthenia, Grade 2: 4 (5) no. (%)
  Treatment-related adverse event: Asthenia, Grade ≥3: 4 (5) no. (%)
  Treatment-related adverse event: Conjunctivitis, Any grade: 2 (3) no. (%)
  Treatment-related adverse event: Conjunctivitis, Grade 1: 2 (3) no. (%)
  Treatment-related adverse event: Conjunctivitis, Grade 2: 0 no. (%)
  Treatment-related adverse event: Conjunctivitis, Grade ≥3: 0 no. (%)
  Treatment-related adverse event: Decreased appetite, Any grade: 18 (23) no. (%)
  Treatment-related adverse event: Decreased appetite, Grade 1: 7 (9) no. (%)
  Treatment-related adverse event: Decreased appetite, Grade 2: 9 (12) no. (%)
  Treatment-related adverse event: Decreased appetite, Grade ≥3: 2 (3) no. (%)
  Treatment-related adverse event: Diarrhea, Any grade: 29 (37) no. (%)
  Treatment-related adverse event: Diarrhea, Grade 1: 16 (21) no. (%)
  Treatment-related adverse event: Diarrhea, Grade 2: 13 (17) no. (%)
  Treatment-related adverse event: Diarrhea, Grade ≥3: 0 no. (%)
  Treatment-related adverse event: Dry mouth, Any grade: 31 (40) no. (%)
  Treatment-related adverse event: Dry mouth, Grade 1: 23 (30) no. (%)
  Treatment-related adverse event: Dry mouth, Grade 2: 6 (8) no. (%)
  Treatment-related adverse event: Dry mouth, Grade ≥3: 2 (3) no. (%)
  Treatment-related adverse event: Dry skin, Any grade: 16 (21) no. (%)
  Treatment-related adverse event: Dry skin, Grade 1: 8 (10) no. (%)
  Treatment-related adverse event: Dry skin, Grade 2: 8 (10) no. (%)
  Treatment-related adverse event: Dry skin, Grade ≥3: 0 no. (%)
  Treatment-related adverse event: Dysgeusia, Any grade: 10 (13) no. (%)
  Treatment-related adverse event: Dysgeusia, Grade 1: 6 (8) no. (%)
  Treatment-related adverse event: Dysgeusia, Grade 2: 4 (5) no. (%)
  Treatment-related adverse event: Dysgeusia, Grade ≥3: 0 no. (%)
  Treatment-related adverse event: Fatigue, Any grade: 12 (15) no. (%)
  Treatment-related adverse event: Fatigue, Grade 1: 5 (6) no. (%)
  Treatment-related adverse event: Fatigue, Grade 2: 6 (8) no. (%)
  Treatment-related adverse event: Fatigue, Grade ≥3: 1 (1) no. (%)
  Treatment-related adverse event: Hand-foot syndrome, Any grade: 12 (15) no. (%)
  Treatment-related adverse event: Hand-foot syndrome, Grade 1: 4 (5) no. (%)
  Treatment-related adverse event: Hand-foot syndrome, Grade 2: 8 (10) no. (%)
  Treatment-related adverse event: Hand-foot syndrome, Grade ≥3: 0 no. (%)
  Treatment-related adverse event: Hyperphosphatemia, Any grade: 49 (63) no. (%)
  Treatment-related adverse event: Hyperphosphatemia, Grade 1: 41 (53) no. (%)
  Treatment-related adverse event: Hyperphosphatemia, Grade 2: 8 (10) no. (%)
  Treatment-related adverse event: Hyperphosphatemia, Grade ≥3: 0 no. (%)
  Treatment-related adverse event: Lacrimation increased, Any grade: 12 (15) no. (%)
  Treatment-related adverse event: Lacrimation increased, Grade 1: 9 (12) no. (%)
  Treatment-related adverse event: Lacrimation increased, Grade 2: 3 (4) no. (%)
  Treatment-related adverse event: Lacrimation increased, Grade ≥3: 0 no. (%)
  Treatment-related adverse event: Nausea, Any grade: 6 (8) no. (%)
  Treatment-related adverse event: Nausea, Grade 1: 4 (5) no. (%)
  Treatment-related adverse event: Nausea, Grade 2: 2 (3) no. (%)
  Treatment-related adverse event: Nausea, Grade ≥3: 0 no. (%)
  Treatment-related adverse event: Onycholysis, Any grade: 13 (17) no. (%)
  Treatment-related adverse event: Onycholysis, Grade 1: 2 (3) no. (%)
  Treatment-related adverse event: Onycholysis, Grade 2: 6 (8) no. (%)
  Treatment-related adverse event: Onycholysis, Grade ≥3: 5 (6) no. (%)
  Treatment-related adverse event: Onychomadesis, Any grade: 8 (10) no. (%)
  Treatment-related adverse event: Onychomadesis, Grade 1: 2 (3) no. (%)
  Treatment-related adverse event: Onychomadesis, Grade 2: 6 (8) no. (%)
  Treatment-related adverse event: Onychomadesis, Grade ≥3: 0 no. (%)
  Treatment-related adverse event: Paronychia, Any grade: 11 (14) no. (%)
  Treatment-related adverse event: Paronychia, Grade 1: 1 (1) no. (%)
  Treatment-related adverse event: Paronychia, Grade 2: 10 (13) no. (%)
  Treatment-related adverse event: Paronychia, Grade ≥3: 0 no. (%)
  Treatment-related adverse event: Retinal detachment, Any grade: 8 (10) no. (%)
  Treatment-related adverse event: Retinal detachment, Grade 1: 5 (6) no. (%)
  Treatment-related adverse event: Retinal detachment, Grade 2: 3 (4) no. (%)
  Treatment-related adverse event: Retinal detachment, Grade ≥3: 0 no. (%)
  Treatment-related adverse event: Stomatitis, Any grade: 33 (42) no. (%)
  Treatment-related adverse event: Stomatitis, Grade 1: 13 (17) no. (%)
  Treatment-related adverse event: Stomatitis, Grade 2: 13 (17) no. (%)
  Treatment-related adverse event: Stomatitis, Grade ≥3: 7 (9) no. (%)
  Treatment-related adverse event: Vision blurred, Any grade: 5 (6) no. (%)
  Treatment-related adverse event: Vision blurred, Grade 1: 3 (4) no. (%)
  Treatment-related adverse event: Vision blurred, Grade 2: 1 (1) no. (%)
  Treatment-related adverse event: Vision blurred, Grade ≥3: 1 (1) no. (%)
8 mg continuous (n = 99)
  Treatment-related adverse event: Alopecia, Grade 3: 0 no.
  Treatment-related adverse event: Decreased appetite, Grade 3: 0 no.
  Treatment-related adverse event: Dry mouth, Grade 3: 0 no.
  Treatment-related adverse event: Dry skin, Grade 3: 0 no.
  Treatment-related adverse event: Lacrimation increased, Grade 3: 0 no.
  Treatment-related adverse event: Vision blurred, Grade 3: 0 no.
  Treatment-related adverse event: Weight decreased, Grade 3: 0 no.
[2]
  Treatment-related adverse event of special interest or clinical importance: Arrhythmia-related events, Any grade: 0 no.
  Treatment-related adverse event of special interest or clinical importance: Arrhythmia-related events, Grade ≥3: 0 no.
[3]
  Patients with Abdominal pain, Any grade: 8 (8) no. (%)
  Patients with Abdominal pain, Grade 1: 5 (5) no. (%)
  Patients with Abdominal pain, Grade 2: 2 (2) no. (%)
  Patients with Abdominal pain, Grade ≥3: 1 (1) no. (%)
  Patients with Alanine aminotransferase increased, Any grade: 17 (17) no. (%)
  Patients with Alanine aminotransferase increased, Grade 1: 13 (13) no. (%)
  Patients with Alanine aminotransferase increased, Grade 2: 2 (2) no. (%)
  Patients with Alanine aminotransferase increased, Grade ≥3: 2 (2) no. (%)
  Patients with Alopecia, Any grade: 29 (29) no. (%)
  Patients with Alopecia, Grade 1: 23 (23) no. (%)
  Patients with Alopecia, Grade 2: 6 (6) no. (%)
  Patients with Alopecia, Grade ≥3: 0 no. (%)
  Patients with Anemia, Any grade: 20 (20) no. (%)
  Patients with Anemia, Grade 1: 9 (9) no. (%)
  Patients with Anemia, Grade 2: 7 (7) no. (%)
  Patients with Anemia, Grade ≥3: 4 (4) no. (%)
  Patients with Arthralgia, Any grade: 8 (8) no. (%)
  Patients with Arthralgia, Grade 1: 5 (5) no. (%)
  Patients with Arthralgia, Grade 2: 3 (3) no. (%)
  Patients with Arthralgia, Grade ≥3: 0 no. (%)
  Patients with Aspartate aminotransferase increased, Any grade: 10 (10) no. (%)
  Patients with Aspartate aminotransferase increased, Grade 1: 8 (8) no. (%)
  Patients with Aspartate aminotransferase increased, Grade 2: 2 (2) no. (%)
  Patients with Aspartate aminotransferase increased, Grade ≥3: 0 no. (%)
  Patients with Asthenia, Any grade: 20 (20) no. (%)
  Patients with Asthenia, Grade 1: 2 (2) no. (%)
  Patients with Asthenia, Grade 2: 11 (11) no. (%)
  Patients with Asthenia, Grade ≥3: 7 (7) no. (%)
  Patients with Back pain, Any grade: 5 (5) no. (%)
  Patients with Back pain, Grade 1: 4 (4) no. (%)
  Patients with Back pain, Grade 2: 1 (1) no. (%)
  Patients with Back pain, Grade ≥3: 0 no. (%)
  Patients with Blood creatinine increased, Any grade: 10 (10) no. (%)
  Patients with Blood creatinine increased, Grade 1: 5 (5) no. (%)
  Patients with Blood creatinine increased, Grade 2: 5 (5) no. (%)
  Patients with Blood creatinine increased, Grade ≥3: 0 no. (%)
  Patients with Conjunctivitis, Any grade: 13 (13) no. (%)
  Patients with Conjunctivitis, Grade 1: 6 (6) no. (%)
  Patients with Conjunctivitis, Grade 2: 7 (7) no. (%)
  Patients with Conjunctivitis, Grade ≥3: 0 no. (%)
  Patients with Constipation, Any grade: 28 (28) no. (%)
  Patients with Constipation, Grade 1: 19 (19) no. (%)
  Patients with Constipation, Grade 2: 8 (8) no. (%)
  Patients with Constipation, Grade ≥3: 1 (1) no. (%)
  Patients with Decreased appetite, Any grade: 38 (38) no. (%)
  Patients with Decreased appetite, Grade 1: 18 (18) no. (%)
  Patients with Decreased appetite, Grade 2: 20 (20) no. (%)
  Patients with Decreased appetite, Grade ≥3: 0 no. (%)
  Patients with Diarrhea, Any grade: 50 (51) no. (%)
  Patients with Diarrhea, Grade 1: 31 (31) no. (%)
  Patients with Diarrhea, Grade 2: 15 (15) no. (%)
  Patients with Diarrhea, Grade ≥3: 4 (4) no. (%)
  Patients with Dry eye, Any grade: 19 (19) no. (%)
  Patients with Dry eye, Grade 1: 14 (14) no. (%)
  Patients with Dry eye, Grade 2: 4 (4) no. (%)
  Patients with Dry eye, Grade ≥3: 1 (1) no. (%)
  Patients with Dry mouth, Any grade: 45 (46) no. (%)
  Patients with Dry mouth, Grade 1: 34 (34) no. (%)
  Patients with Dry mouth, Grade 2: 11 (11) no. (%)
  Patients with Dry mouth, Grade ≥3: 0 no. (%)
  Patients with Dry skin, Any grade: 32 (32) no. (%)
  Patients with Dry skin, Grade 1: 24 (24) no. (%)
  Patients with Dry skin, Grade 2: 8 (8) no. (%)
  Patients with Dry skin, Grade ≥3: 0 no. (%)
  Patients with Dysgeusia, Any grade: 37 (37) no. (%)
  Patients with Dysgeusia, Grade 1: 23 (23) no. (%)
  Patients with Dysgeusia, Grade 2: 13 (13) no. (%)
  Patients with Dysgeusia, Grade ≥3: 1 (1) no. (%)
  Patients with Dyspepsia, Any grade: 11 (11) no. (%)
  Patients with Dyspepsia, Grade 1: 10 (10) no. (%)
  Patients with Dyspepsia, Grade 2: 1 (1) no. (%)
  Patients with Dyspepsia, Grade ≥3: 0 no. (%)
  Patients with Dyspnea, Any grade: 8 (8) no. (%)
  Patients with Dyspnea, Grade 1: 4 (4) no. (%)
  Patients with Dyspnea, Grade 2: 2 (2) no. (%)
  Patients with Dyspnea, Grade ≥3: 2 (2) no. (%)
  Patients with Fatigue, Any grade: 32 (32) no. (%)
  Patients with Fatigue, Grade 1: 12 (12) no. (%)
  Patients with Fatigue, Grade 2: 18 (18) no. (%)
  Patients with Fatigue, Grade ≥3: 2 (2) no. (%)
  Patients with Hand-foot syndrome, Any grade: 23 (23) no. (%)
  Patients with Hand-foot syndrome, Grade 1: 6 (6) no. (%)
  Patients with Hand-foot syndrome, Grade 2: 12 (12) no. (%)
  Patients with Hand-foot syndrome, Grade ≥3: 5 (5) no. (%)
  Patients with Hematuria, Any grade: 10 (10) no. (%)
  Patients with Hematuria, Grade 1: 7 (7) no. (%)
  Patients with Hematuria, Grade 2: 1 (1) no. (%)
  Patients with Hematuria, Grade ≥3: 2 (2) no. (%)
  Patients with Hyperphosphatemia, Any grade: 76 (77) no. (%)
  Patients with Hyperphosphatemia, Grade 1: 53 (54) no. (%)
  Patients with Hyperphosphatemia, Grade 2: 21 (21) no. (%)
